Laboratory results as given in patent US11001615B2, “Mutated tau protein fragment and use thereof” (ADEL INC., priority 2016, dated 2021).
“Also recorded” adds a separate entry of the source. Ends that are not written are not given here.

Legend:
Format in all cases: in vivo
Tau-P301L dementia mice [1] = experiment: Forced swimming test; conditions: second day, 5 minutes
Method: (§1) JNPL3 mice expressing Tau-P301L mutant gene were purchased from Taconic, and back-crossed with C57bl/6 mice for five generations in the experimental animal room of the Asan Institute for Life Sciences. Then, the mice were raised under a specific pathogen free (SPE) condition. For active immunization, the mice were administered, for six months starting from three months after birth at intervals of two weeks, two weeks, four weeks, four weeks, five weeks, four weeks, and one week in this order, the four modified tau protein fragments prepared in Preparation Example 1 together with keyhole limpet hemocyanin (KLH) as a carrier and an aluminum adjuvant. At this time, administration was carried out through intraperitoneal injection (IP injection). The dementia mice which were actively immunized by administration of the K280-ac fragment were designated as Tau-P301L-K280-ac.
A forced swimming test was conducted to identify a depression-ameliorating effect in the Tau-P301L dementia mice produced in Preparation Example 2. The experiment was conducted for a total of 2 days. […] An index to swim in water (Swimming/S), an index to climb up along the beaker wall (Climbing/C), and an index to float in water without any movement (Immobility/I) were respectively analyzed.

Tau-P301L dementia mice [2] = experiment: Vertical grid test; conditions: normal mice 10 or shorter, Tau-P301L 5 or shorter
Method: as §1
A vertical grid test was performed on the mice raised in Preparation Example 2. […] Specifically, the mice were placed on the vertical grid device, and allowed to go up and down the vertical grid. The time until the mice dropped down from the grid was measured.

Tau-P301L dementia mice [3] = experiment: ELISA using plasma: antibody production against modified tau protein fragments; conditions: ELISA using plasma after final administration; fragment with KLH and aluminum adjuvant, IP
Method: as §1
In order to identify whether antibodies against the four modified tau protein fragments prepared in Preparation Example 1 were produced, the respective modified tau protein fragments or the full-length tau protein was finally administered, and then ELISA was performed using plasma.

Tau-P301L dementia mice [4] = experiment: Y-maze experiment; conditions: Tau-P301L 50% decrease in measurement time versus normal mice
Method: as §1
In addition, a Y-maze experiment was performed to identify restoration of cognitive function. Specifically, A, B, and C zones were set in a Y-shaped box, and the mice were allowed to freely move for 5 minutes in a state where the B zone was blocked.

Tau-P301L dementia mice [5] = experiment: Fear conditioning experiment; conditions: actively immunized Tau-P301L dementia mice; normal mice about 150, Tau-P301L 100 or shorter
Method: as §1
A fear conditioning experiment was performed on the mice raised in Preparation Example 2. […]
On the day before the fear conditioning experiment, the mice were allowed to become accustomed to a training situation by being placed in the training situation for 10 minutes. […] All tests were recorded on Limelight (Actimetrics) and a computer.
On the next day, the mice were placed again in the experimental cage for 10 minutes and a baseline freezing time was measured while the beep sound was heard. […]

Tau-P301L dementia mice [6] = experiment: Nest building test; conditions: Tau-P301L about 50% decrease versus normal mice
Method: as §1
Behavioral experiments were conducted to identify changes in motor ability and cognitive function of the Tau-P301L dementia mice produced in Preparation Example 2. A nest building test which can identify a multimodal brain function of the mice was performed.
Specifically, two-thirds of the litter in a cage where the mice are raised was removed and four layers of sterile cotton (5 cm×5 cm) were placed in the cage. One mouse was allowed to enter one cage. The next morning, a degree of completion of the nest was analyzed.

Tau-P301L dementia mice [7] = experiment: Western blotting of brain tissues for synapse-related proteins; conditions: brain tissue
Method: as §1
In order to identify a synapse-improving effect following administration of the K280-ac fragment, brain tissues of the Tau-P301L-K280-ac dementia mice, the P301L-K280-ac dementia mice, and the normal mice produced in Preparation Example 2 were extracted, and western blotting was performed.

Tau-P301L dementia mice [8] = experiment: Antibody distribution in brain tissue (immunohistochemical staining and western blotting for mouse immunoglobulin-G); conditions: after cardiac perfusion
Method: as §1
In order to identify antibodies in brain tissues of the Tau-P301L-K280-ac dementia mice, the P301L-K280-ac dementia mice, and the normal mice produced in Preparation Example 2, cardiac perfusion was performed with cold physiological saline. Then, the brain tissues were extracted, and immunohistochemical staining and western blotting were performed for mouse immunoglobulin-G.

Tau-P301L dementia mice [9] = experiment: Memory tests and motor ability tests after active immunization (overall comparison); conditions: comparison of the four modified tau protein fragments
Source text: Tau-P301L dementia mice were actively immunized by administration of the four modified tau protein fragments prepared in Preparation Example 1. Then, the Tau-P301L dementia mice were subjected to memory tests such as fear conditioning test and Morris water maze test, motor ability tests such as grip strength test and vertical test, and the like, so that improved effects obtained by the respective modified tau protein fragments were compared.
as §1

Tau-P301L dementia mice [10] = experiment: MR spectroscopy (MRS) of the hippocampus; conditions: hippocampus ROI; dementia mice about 50% decrease versus normal mice
Method: as §1
In order to identify a metabolic imaging index-improving effect following administration of the K280-ac fragment, MR spectroscopy (MRS) was performed on the Tau-P301L-K280-ac dementia mice, the P301L-K280-ac dementia mice, and the normal mice produced in Preparation Example 2. The hippocampus was designated as a region of interest (ROI) (FIG. 36).

Substance: Val-Gln-Ile-Ile-Asn-Lys-Lys-Leu-Asp-Leu-Ser-Asn (VQIINK(Ac)KLDLSN) [K280-ac]
- depression-ameliorating effect (immobility, swimming, climbing) (Tau-P301L dementia mice [1]): depression-ameliorating effect is exhibited
- measured time on the vertical grid (Tau-P301L dementia mice [2]): 10 s
- antibodies against the fragment produced (Tau-P301L dementia mice [3]): well produced
- cognitive function in the Y-maze (Tau-P301L dementia mice [4]): restored
- freezing time (Tau-P301L dementia mice [5]): about 150 seconds
- building score (Tau-P301L dementia mice [6]): restored to a level which is similar to that in the normal mice
- expression level of synapse-related proteins such as PSD95, NMDA receptor, synaptophysin, and synapsin-1 (Tau-P301L dementia mice [7]): restored to that in the normal mice
- antibodies in brain tissues (Tau-P301L dementia mice [8]): antibodies are present
- improved effect in memory and motor ability tests (Tau-P301L dementia mice [9]): improved effect at a level similar to that in normal mice; also recorded: restores a motor ability and a cognitive function
- N-acetyl-aspartyl-glutamic acid (NAAG) (Tau-P301L dementia mice [10]): restored
